Experimental data as given in patent US20240228486A1, “SULFONE- AND SULFOXIMINE-BASED SELECTIVE PARP1 INHIBITORS” (Enliven Inc., priority 2022, published 2024).

Tests used:
PARP1 = PARP1 (Homo sapiens (Human), UniProt P09874); experiment: PARP1 FP Assay; assay type: binding; conditions: PARP1 fluorescence polarization probe assay, 4 hours at room temperature
Procedure: Compounds were dissolved and 4-fold serially diluted in DMSO. Compounds were transferred by an Echo to the assay plate to reach final concentrations ranging from 10 μM to 0.01 nM.
Assay buffer was composed of 50 mM Tris pH 8.0, 10 mM MgCl2, 150 mM NaCl and 0.001% Triton X100.

[1] = tested on: PARylation level in MDA-MB-436; experiment: PARPylation MSD Assay on MDA-MB-436; assay type: cell-based; conditions: Homo sapiens; MDA-MB-436 cells, 4 hours incubation with compound, electrochemiluminescent (MSD) detection of PARylation
Procedure: Compounds were dissolved and 4-fold serially diluted in DMSO.
Plates were incubated for 1 hour at room temperature, with shaking. […] Plates were incubated for 1 hour at room temperature, with shaking.

PARP2 = PARP2 (Homo sapiens (Human), UniProt Q9UGN5); experiment: PARP2 FP Assay; assay type: binding; conditions: PARP2 fluorescence polarization probe assay, 4 hours at room temperature
Chain of PARP2 (Q9UGN5 whole entry): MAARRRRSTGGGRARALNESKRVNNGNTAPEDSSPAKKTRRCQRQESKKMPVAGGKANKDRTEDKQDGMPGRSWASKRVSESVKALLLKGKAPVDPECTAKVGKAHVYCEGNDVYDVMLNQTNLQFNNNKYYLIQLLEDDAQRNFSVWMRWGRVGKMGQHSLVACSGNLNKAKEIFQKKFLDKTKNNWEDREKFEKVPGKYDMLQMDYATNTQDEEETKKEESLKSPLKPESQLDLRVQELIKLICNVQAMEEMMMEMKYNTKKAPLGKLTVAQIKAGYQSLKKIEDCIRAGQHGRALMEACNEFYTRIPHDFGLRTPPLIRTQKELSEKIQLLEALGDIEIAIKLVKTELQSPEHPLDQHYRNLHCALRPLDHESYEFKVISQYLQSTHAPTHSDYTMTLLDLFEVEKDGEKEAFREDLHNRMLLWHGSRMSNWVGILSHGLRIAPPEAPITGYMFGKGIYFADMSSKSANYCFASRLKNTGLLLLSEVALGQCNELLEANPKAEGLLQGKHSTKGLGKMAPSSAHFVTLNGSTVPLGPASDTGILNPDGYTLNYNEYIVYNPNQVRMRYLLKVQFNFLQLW

Chain of PARP1 (P09874 whole entry): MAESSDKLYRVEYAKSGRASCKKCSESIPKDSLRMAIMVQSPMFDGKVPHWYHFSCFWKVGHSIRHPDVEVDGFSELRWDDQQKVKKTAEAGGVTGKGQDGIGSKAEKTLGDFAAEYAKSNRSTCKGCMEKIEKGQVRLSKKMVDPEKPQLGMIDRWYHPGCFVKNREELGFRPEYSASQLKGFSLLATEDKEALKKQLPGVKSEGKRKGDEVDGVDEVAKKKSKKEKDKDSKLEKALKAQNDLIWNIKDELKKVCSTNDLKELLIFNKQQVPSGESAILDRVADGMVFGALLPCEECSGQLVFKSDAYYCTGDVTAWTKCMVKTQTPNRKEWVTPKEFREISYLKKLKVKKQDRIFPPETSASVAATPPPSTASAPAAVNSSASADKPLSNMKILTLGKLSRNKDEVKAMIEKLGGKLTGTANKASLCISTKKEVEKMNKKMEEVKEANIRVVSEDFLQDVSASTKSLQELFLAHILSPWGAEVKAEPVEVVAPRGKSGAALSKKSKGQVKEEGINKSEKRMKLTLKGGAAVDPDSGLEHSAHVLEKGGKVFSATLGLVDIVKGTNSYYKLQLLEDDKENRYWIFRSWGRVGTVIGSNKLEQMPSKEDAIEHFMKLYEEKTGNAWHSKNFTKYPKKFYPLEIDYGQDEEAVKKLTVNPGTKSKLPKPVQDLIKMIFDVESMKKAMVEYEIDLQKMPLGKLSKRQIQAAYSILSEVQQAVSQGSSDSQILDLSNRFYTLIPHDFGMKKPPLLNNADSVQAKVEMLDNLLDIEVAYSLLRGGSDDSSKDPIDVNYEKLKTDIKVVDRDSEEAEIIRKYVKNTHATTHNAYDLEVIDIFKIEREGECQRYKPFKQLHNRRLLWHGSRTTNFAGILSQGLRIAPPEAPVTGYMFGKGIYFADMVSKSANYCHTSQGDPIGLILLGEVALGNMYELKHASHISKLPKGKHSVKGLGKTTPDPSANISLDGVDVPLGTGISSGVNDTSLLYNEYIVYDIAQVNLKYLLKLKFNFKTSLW

IC50 (PARP1)	IC50 [1]	IC50 (PARP2)	SMILES
> 10000 nM	> 1000 nM	> 10000 nM	CCc1cc2ncc(S(=O)(=O)N3CCN(c4ccc(F)cc4F)CC3)cc2[nH]c1=O [Compound 2.6, 7-((4-(2,4-difluorophenyl)piperazin-1-yl)sulfonyl)-3-ethyl-1,5-naphthyridin-2(1H)-one]
8.66 nM	0.515 nM	> 10000 nM	CCc1cc2ncc([S@@](=N)(=O)C3CCN(c4ccc(C(=O)NC)nc4)CC3)cc2[nH]c1=O (single isomer, unassigned) [Compound 2.8]
6.89 nM	10.8 nM	> 10000 nM	CCc1cc2ncc([S@](=N)(=O)C3CCN(c4ccc(C(=O)NC)nc4)CC3)cc2[nH]c1=O (single isomer, unassigned) [Compound 2.7]
